Data on 5 compounds can be found in article PMC7600264, “Quasi-Irreversible Inhibition of CYP2D6 by Berberine” (Pharmaceutics, 2020).

Series [1] is described as follows: Metabolic stability and metabolite formation of BBR in pooled HLM. To be noted: BBR 1 µM in pooled HLM with NADPH-generating system, mean ± SD.
Description: To evaluate NADPH-dependent metabolism, BBR (1 µM) was incubated with pooled HLM (1 mg/mL) in the presence of the NADPH-regenerating system (1 mM of NADP^+, 5 mM of G6P, and 1 U/mL of G6PDH) to be a final volume of 200 µL. The reactions were quenched by adding the same volume of ice-cold ACN containing CBZ (100 nM) at 0, 7.5, 15, 30, 60, and 120 min of incubation. The incubation mixtures were centrifuged at 1000× g for 20 min at 4 °C, and the supernatants were analyzed by the LC-MS/MS system described in Section 2.2.
Meanwhile, to identify the known metabolites of BBR, an aliquot (5 µL) of the supernatant was injected into an accurate-MS system consisting of an Agilent 6530 Q-TOF LC/MS equipped with dual AJS ESI ion source (Agilent Technologies) and Agilent 1200 series HPLC system (Agilent Technologies). Chromatographic separations were performed on an Agilent Eclipse Plus C18 column (150 × 2.1 mm, 3.5 µm; Agilent Technologies) by gradient elution with a binary mobile phase consisting of DDW with 0.1% (v/v) formic acid (A) and ACN with 0.1% (v/v) formic acid (B) at a flow rate of 0.2 mL/min, where the mobile phase B was set as follows: 2% at 0 min, 20% at 15 min, and 30% at 20–25 min, followed by re-equilibration for 3 min.
In vitro metabolic stability parameters, including half-life (t1/2) and microsomal intrinsic clearance (CLint,mic), were determined according to our previous report [32]. The degradation t1/2 values of the microsomal stability studies were calculated using the following Equation (2):(2) t1/2=0.693/k, where k represents the first-order degradation rate constant. The k values were estimated by fitting a one-phase exponential decay model to the parent drug remaining (%) vs. incubation time plots using GraphPad Prism 5.0 (GraphPad Software Inc., San Diego, CA, USA).
The CLint,mic was determined using the in vitro half-life approach.
The target in series [2] is T1, CYP2C8 (Homo sapiens, UniProt P10632).
T1 sequence (P10632 1-490): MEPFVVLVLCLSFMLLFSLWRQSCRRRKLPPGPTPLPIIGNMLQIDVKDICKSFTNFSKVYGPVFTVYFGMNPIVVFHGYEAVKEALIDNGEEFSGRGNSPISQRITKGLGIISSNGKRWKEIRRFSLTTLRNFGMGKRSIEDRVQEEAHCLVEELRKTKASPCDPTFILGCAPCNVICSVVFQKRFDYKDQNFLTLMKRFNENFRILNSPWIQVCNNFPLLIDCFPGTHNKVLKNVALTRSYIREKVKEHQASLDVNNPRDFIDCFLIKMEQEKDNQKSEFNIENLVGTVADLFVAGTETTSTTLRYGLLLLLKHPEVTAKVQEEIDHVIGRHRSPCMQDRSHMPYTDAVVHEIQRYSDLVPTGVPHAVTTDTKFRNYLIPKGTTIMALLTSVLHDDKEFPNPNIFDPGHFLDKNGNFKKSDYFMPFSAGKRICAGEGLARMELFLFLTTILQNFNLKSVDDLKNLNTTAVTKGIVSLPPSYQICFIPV
Description: Direct CYP inhibition assay using pooled HLM.
Description: (§1) The enzyme reactions were initiated by adding NADPH (1 mM), and the mixtures were incubated at 37 °C for 5 min in a shaking water bath (100 rpm). The reaction was terminated by adding ice-cold acetonitrile (ACN) containing CBZ (100 nM) and 4-methyl-umbelliferone (300 nM) as internal standards (IS).
(§2) The chromatographic separation was performed on an Agilent 1200 series HPLC system (Agilent Technologies, Santa Clara, CA, USA) equipped with an Atlantis^TM dC18 column (2.1 × 50 mm, 3 µm; Waters Corporation, Milford, MA, USA) with a SecuityGuard^TM C18 guard column (2.0 × 4.0 mm; Phenomenex, Torrance, CA, USA). The mobile phases consisted of double-deionized water (DDW) containing 0.1% (v/v) of formic acid (A) and ACN containing 0.1% (v/v) formic acid (B). […] The sample injection volume was 10 µL, and the total run time was 9.0 min. The column and auto-sampler compartments were maintained at 30 °C and 10 °C, respectively, throughout the analysis. The detection was performed using an API4000 Q-TRAP system equipped with a Turbo V Ion Spray^TM source (Applied Biosystems, Foster City, CA, USA). The operating conditions were optimized as follows: ionization voltage: 5500 V for positive-ion mode and −4500 V for negative-ion mode; ion source temperature: 550 °C; nebulizing gas flow: 50 L/min; auxiliary gas flow: 40 L/min; and curtain gas flow: 30 L/min. The samples were analyzed via multiple reaction monitoring (MRM) mode. […] The data acquisition and processing were performed using Analyst^TM software (version 1.5.2; Applied Biosystems, Foster City, CA, USA).

Series [3] has as its target CYP3A4 (Homo sapiens, UniProt P08684). Description: Direct CYP inhibition assay using pooled HLM. Particulars: for pIC50: direct inhibition, 95% confidence intervals in parentheses.
Description: as §1, §2
Series [4] has as its target T2, CYP2D6 (Homo sapiens, UniProt P10635). Description: Direct CYP inhibition assay using pooled HLM.
Description: as §1, §2
For series [5], the target named is CYP2C9 (Homo sapiens, UniProt P11712). Description: Direct CYP inhibition assay using pooled HLM.
Description: as §1, §2
Series [6] addresses T3, CYP2B6 (Homo sapiens, UniProt P20813).
T3 sequence (P20813 1-491): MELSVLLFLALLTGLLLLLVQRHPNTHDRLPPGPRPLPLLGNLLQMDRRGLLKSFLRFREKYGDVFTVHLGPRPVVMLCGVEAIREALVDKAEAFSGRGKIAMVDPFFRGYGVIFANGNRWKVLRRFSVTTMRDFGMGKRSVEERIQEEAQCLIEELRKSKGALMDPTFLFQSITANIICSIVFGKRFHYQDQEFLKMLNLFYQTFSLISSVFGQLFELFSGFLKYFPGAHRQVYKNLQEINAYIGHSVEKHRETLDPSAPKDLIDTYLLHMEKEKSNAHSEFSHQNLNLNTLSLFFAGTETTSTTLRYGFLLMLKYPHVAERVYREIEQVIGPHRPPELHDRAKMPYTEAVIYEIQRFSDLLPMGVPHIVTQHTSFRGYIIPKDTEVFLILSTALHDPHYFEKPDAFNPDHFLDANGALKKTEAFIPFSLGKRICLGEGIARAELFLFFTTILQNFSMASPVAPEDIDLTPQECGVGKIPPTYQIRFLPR
Description: Direct CYP inhibition assay using pooled HLM.
Description: as §1, §2

In series [7] the test system is CYP enzymes (range over all CYP enzymes tested). The series can be described thus: Direct CYP inhibition assay using pooled HLM, all CYP enzymes tested. The format is in vitro ADME, human. To be noted: human, pooled human liver microsomes, pH 7.4, read-out: IC50 values, range over all CYP enzymes tested (pan-CYP inhibitory activities). For orientation: Liver microsomes are vesicles of endoplasmic reticulum, rich in cytochrome P450 enzymes.
Description: as §1
The chromatographic separation was performed on an Agilent 1200 series HPLC system (Agilent Technologies, Santa Clara, CA, USA) equipped with an Atlantis^TM dC18 column (2.1 × 50 mm, 3 µm; Waters Corporation, Milford, MA, USA) with a SecuityGuard^TM C18 guard column (2.0 × 4.0 mm; Phenomenex, Torrance, CA, USA). The mobile phases consisted of double-deionized water (DDW) containing 0.1% (v/v) of formic acid (A) and ACN containing 0.1% (v/v) formic acid (B). […] The sample injection volume was 10 µL, and the total run time was 9.0 min. The column and auto-sampler compartments were maintained at 30 °C and 10 °C, respectively, throughout the analysis. The detection was performed using an API4000 Q-TRAP system equipped with a Turbo V Ion Spray^TM source (Applied Biosystems, Foster City, CA, USA). […] The samples were analyzed via multiple reaction monitoring (MRM) mode. […]

In series [8] the target is CYP2E1 (Homo sapiens, UniProt P05181). The series can be described thus: Direct CYP inhibition assay using pooled HLM.
Description: as §1, §2
In series [9] the target is T4, CYP2A6 (Homo sapiens, UniProt P11509).
T4 sequence (P11509 1-494): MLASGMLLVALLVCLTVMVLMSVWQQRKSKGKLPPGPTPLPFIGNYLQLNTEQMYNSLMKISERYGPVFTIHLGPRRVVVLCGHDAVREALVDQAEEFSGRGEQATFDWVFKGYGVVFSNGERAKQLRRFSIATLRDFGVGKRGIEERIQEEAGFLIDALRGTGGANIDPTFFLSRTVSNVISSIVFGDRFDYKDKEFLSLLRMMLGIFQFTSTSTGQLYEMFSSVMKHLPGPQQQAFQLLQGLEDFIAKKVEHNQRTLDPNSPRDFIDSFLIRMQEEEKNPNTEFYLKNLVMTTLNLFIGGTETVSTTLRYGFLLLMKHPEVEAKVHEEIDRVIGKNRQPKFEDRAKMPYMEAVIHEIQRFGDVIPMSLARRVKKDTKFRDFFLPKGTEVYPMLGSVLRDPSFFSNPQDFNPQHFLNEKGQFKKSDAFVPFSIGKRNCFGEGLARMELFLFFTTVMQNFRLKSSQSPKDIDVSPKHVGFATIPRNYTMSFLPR
Description: Direct CYP inhibition assay using pooled HLM.
Description: as §1, §2

Series [10] addresses T5, CYP1A2 (Homo sapiens, UniProt P05177).
T5 sequence (P05177 1-516): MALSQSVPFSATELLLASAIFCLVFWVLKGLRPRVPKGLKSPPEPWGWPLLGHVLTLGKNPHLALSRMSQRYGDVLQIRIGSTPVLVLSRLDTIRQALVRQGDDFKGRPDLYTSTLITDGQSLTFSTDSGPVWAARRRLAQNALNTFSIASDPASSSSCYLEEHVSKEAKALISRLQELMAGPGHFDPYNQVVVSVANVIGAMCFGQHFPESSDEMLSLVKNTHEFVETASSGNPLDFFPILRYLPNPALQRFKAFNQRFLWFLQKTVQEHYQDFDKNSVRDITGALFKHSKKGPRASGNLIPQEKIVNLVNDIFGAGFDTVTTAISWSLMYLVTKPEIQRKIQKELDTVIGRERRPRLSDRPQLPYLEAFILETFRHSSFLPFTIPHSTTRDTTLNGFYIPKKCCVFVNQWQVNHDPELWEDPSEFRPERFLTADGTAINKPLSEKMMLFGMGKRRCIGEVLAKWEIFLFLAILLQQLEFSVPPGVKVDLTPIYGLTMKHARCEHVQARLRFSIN
The series can be described thus: Direct CYP inhibition assay using pooled HLM.
Description: as §1, §2

Series [11] addresses CYP2C19 (Homo sapiens, UniProt P33261). The series can be described thus: Direct CYP inhibition assay using pooled HLM.
Description: as §1, §2
Series [12] concerns the target T2, CYP2D6. The series can be described thus: Metabolism-dependent CYP2D6 inhibition assay (IC50 shift) using pooled HLM. To be noted: for MDI (metabolism-dependent inhibition) of CYP2D6 (in words): pre-incubation with NADPH.
Description: Pre-incubation was performed in pooled HLM (0.2 mg/mL) added with BBR, THB, TFD, or DMB, or rhCYP2D6 (10 pmol/mL) added with BBR, with or without NADPH (1 mM) in phosphate buffer (0.1 M; pH 7.4) for 30 min. Then, the CYP2D6 substrate (5 µM of dextromethorphan) and NADPH (1 mM) were added to the mixture and incubated for another 10 min. All incubations were carried out at 37 °C in a shaking water bath (100 rpm) using eight-well tube strips placed in an 8 × 12 rack, where the final volume of each reaction mixture was 200 µL. […] The enzyme reactions were quenched by adding an aliquot (200 µL) of ice-cold ACN containing CBZ (100 nM) as an IS. The samples were centrifuged, and the concentration of CYP2D6 metabolite (i.e., dextrorphan, produced by O-demethylation of dextromethorphan) in supernatants were analyzed using the LC-MS/MS method described in Section 2.2.
The format of series [13] is in vitro ADME, human. Particulars: human, 1 µM. On the procedure:
Table 3. Putative M1 metabolite produced in pooled HLM incubated with thalifendine or
Precursor molecules Incubation time (min)a M1 signal at m/z 310 (103 × cps)b
Demethyleneberberine 0 107 ± 3
a Thalifendine or demethyleneberberine (1 μM) was incubated with pooled HLM in the presence of
NADPH-generating system; b Each value represents the mean ± SD for three separate samples. […]

Setting [14] is: IC50 CYP3A4 (MDZ), substrate MDZ.
Setting [15] is: IC50 CYP3A4 (TST), substrate TST.

pIC50: −log10 of the molar value. Where two headings read alike, the source gives them in different places.

By pIC50 is commonly meant −log10 of the IC50, conventionally taken in molar units. As usually defined, the IC50 is the point on the concentration scale where inhibition reaches its midpoint.

Chain of CYP2C19 (P33261 whole entry): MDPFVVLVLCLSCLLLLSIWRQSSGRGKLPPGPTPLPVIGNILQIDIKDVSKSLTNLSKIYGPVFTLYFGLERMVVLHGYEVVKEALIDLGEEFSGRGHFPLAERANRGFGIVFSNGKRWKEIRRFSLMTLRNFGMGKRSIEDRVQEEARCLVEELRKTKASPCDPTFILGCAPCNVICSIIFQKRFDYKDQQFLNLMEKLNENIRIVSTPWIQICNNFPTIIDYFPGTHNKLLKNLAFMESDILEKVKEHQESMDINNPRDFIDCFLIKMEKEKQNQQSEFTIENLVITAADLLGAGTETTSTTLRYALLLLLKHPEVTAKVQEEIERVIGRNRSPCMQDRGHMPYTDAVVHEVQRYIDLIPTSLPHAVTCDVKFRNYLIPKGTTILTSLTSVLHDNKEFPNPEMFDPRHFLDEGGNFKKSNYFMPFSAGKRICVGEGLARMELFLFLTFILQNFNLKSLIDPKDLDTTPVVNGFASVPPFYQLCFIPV
Chain of CYP2C9 (P11712 whole entry): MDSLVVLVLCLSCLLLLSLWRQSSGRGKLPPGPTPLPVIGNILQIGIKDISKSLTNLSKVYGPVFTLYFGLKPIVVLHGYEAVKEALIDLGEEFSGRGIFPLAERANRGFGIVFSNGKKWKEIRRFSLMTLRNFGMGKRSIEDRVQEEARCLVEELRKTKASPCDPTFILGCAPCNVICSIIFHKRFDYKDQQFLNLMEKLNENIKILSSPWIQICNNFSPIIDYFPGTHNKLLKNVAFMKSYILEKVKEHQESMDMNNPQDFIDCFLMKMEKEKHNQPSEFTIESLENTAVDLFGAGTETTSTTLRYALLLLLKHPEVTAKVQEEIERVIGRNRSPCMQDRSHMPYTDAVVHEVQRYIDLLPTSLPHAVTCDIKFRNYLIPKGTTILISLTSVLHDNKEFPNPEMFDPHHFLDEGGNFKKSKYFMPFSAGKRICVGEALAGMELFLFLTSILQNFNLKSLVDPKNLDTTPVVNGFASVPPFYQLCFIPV
T2 sequence (P10635 whole entry): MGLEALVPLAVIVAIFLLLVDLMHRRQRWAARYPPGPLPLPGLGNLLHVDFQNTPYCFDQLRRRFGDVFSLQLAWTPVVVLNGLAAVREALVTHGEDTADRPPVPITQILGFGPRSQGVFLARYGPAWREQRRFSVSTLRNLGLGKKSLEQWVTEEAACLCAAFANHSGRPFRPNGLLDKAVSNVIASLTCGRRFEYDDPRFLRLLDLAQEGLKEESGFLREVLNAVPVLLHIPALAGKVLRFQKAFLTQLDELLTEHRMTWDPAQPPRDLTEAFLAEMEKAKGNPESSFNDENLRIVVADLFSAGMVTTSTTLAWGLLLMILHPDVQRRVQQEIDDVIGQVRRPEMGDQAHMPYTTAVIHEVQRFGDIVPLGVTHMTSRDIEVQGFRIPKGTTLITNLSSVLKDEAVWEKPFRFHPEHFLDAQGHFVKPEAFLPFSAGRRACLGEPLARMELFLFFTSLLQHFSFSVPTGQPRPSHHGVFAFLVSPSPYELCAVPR
Chain of CYP3A4 (P08684 whole entry): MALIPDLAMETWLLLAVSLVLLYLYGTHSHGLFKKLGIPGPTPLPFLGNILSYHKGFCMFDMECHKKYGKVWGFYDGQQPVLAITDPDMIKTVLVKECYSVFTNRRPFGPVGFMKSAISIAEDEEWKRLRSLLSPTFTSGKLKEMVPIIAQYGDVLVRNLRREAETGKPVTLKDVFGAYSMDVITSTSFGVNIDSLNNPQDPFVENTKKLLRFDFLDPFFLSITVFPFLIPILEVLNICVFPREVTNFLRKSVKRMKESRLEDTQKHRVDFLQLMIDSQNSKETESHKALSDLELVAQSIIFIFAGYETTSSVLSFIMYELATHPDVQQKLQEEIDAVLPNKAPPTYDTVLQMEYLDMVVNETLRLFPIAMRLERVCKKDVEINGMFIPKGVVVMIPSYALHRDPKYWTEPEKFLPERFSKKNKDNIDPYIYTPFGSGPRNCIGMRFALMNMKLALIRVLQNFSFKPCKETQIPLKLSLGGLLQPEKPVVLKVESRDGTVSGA
Chain of CYP2E1 (P05181 whole entry): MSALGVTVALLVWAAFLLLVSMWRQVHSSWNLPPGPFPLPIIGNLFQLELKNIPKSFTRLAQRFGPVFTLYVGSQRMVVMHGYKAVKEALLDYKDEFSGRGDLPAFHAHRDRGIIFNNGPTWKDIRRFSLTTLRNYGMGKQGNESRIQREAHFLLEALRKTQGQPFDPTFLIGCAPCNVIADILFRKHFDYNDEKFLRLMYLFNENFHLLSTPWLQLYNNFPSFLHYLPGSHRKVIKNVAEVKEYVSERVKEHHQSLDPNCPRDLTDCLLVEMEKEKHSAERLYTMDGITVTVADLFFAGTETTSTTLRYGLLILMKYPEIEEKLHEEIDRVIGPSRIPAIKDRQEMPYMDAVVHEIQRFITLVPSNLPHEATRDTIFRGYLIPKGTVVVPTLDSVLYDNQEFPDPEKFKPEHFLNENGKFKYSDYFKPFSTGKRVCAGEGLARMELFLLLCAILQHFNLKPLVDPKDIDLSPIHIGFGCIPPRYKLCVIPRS

As to `COc1ccc2cc3[n+](cc2c1O)CCc1cc2c(cc1-3)OCO2` [BRB, berberrubine], the “Concentration in incubation mixture (elimination of BBR and formation of its metabolites)” value (from here on “Concentration in incubation mixture”) was 5.4 ± 0.1 nM in series [1] (0 min); 5.6 ± 0.0 nM in series [1] (7.5 min); 5.8 ± 0.1 nM in [1] (15 min); 6.0 ± 0.1 nM in series [1] (30 min); 6.1 ± 0.0 nM in series [1] (60 min); 6.2 ± 0.0 nM in series [1] (120 min). Besides, the pIC50 was 4.14 in [2]; 4.55 in series [3] (setting [14]); 4.35 in series [3] (setting [15]); 4.35 in series [4]; 4.24 in [5]; 4.02 in [6]. Besides, the negative-log IC50 (pIC50) in series [8] is 4.47; in series [9], 4.77; in series [10] it was 4.29; in series [11], 4.31. The IC50 at 5 min in series [7] fell in the range of 17 to 96 µM.

`COc1cc2c(cc1O)CC[n+]1cc3c(OC)c(OC)ccc3cc1-2` [JTZ, jatrorrhizine]: the “Concentration in incubation mixture” value amounted to 10.4 ± 0.3 nM in [1] (0 min); 10.7 ± 0.1 nM in [1] (7.5 min); 10.9 ± 0.3 nM in [1] (15 min); 10.5 ± 0.3 nM in series [1] (30 min); 10.0 ± 0.2 nM in series [1] (60 min); 9.6 ± 0.2 nM in series [1] (120 min). In addition, the negative-log IC50 (pIC50) in series [2] is 4.59; in series [4], 5.00; in series [5], below 4.00; in series [6] it was below 4.00; in series [8], 4.96; in series [9], below 4.00. Moreover, the negative-log IC50 (pIC50) in series [10] and in series [11] was below 4.00 throughout.

For the compound `COc1c(O)ccc2cc3[n+](cc12)CCc1cc2c(cc1-3)OCO2` [TFD, thalifendine], the “Concentration in incubation mixture” value in series [1] (0 min) came out at 5.4 ± 0.1 nM; in [1] (7.5 min) it was 20.9 ± 0.4 nM; in [1] (15 min), 33.3 ± 0.6 nM; in [1] (30 min) it was 44.3 ± 1.0 nM; in series [1] (60 min) it was 50.4 ± 0.7 nM; in series [1] (120 min), 49.3 ± 1.0 nM. For the same compound, the pIC50 in series [2] is below 4.00; in [12] (IC50 against CYP2D6, pre-incubation with NADPH, pooled HLM, 30 min pre-incubation with NADPH), 5.19; in [12] (IC50 against CYP2D6, pre-incubation without NADPH, pooled HLM, 30 min pre-incubation without NADPH), 4.69; in series [3] (setting [14]), below 4.00; in [3] (setting [15]) it was below 4.00; in [4], 4.55. Moreover, the pIC50 in series [5] was below 4.00; in [6], below 4.00; in [8], 4.49; in series [9] it was below 4.00; in series [10] it was below 4.00; in series [11] it was below 4.00. Besides, in [12] (human, pooled human liver microsomes, pH 7.4, probe dextromethorphan (5 µM)), the IC50 shift at 10 min worked out at 3.2. Further, the “MDI (metabolism-dependent inhibition) of CYP2D6 (in words)” value in [12] (pooled HLM) was “exhibited MDI”. For the same compound, the figures for the “M1 signal at m/z 310” value in series [13] (0 min) and in [13] (30 min) were 6 ± 1 103 × cps and 2200 ± 125 103 × cps, respectively.

In the case of `COc1ccc2c(c1OC)CN1CCc3cc4c(cc3C1C2)OCO4` (stereo not drawn) [THB, tetrahydroberberine], the “Inhibition of CYP2C8 (in words)” value in series [2] (pooled HLM, up to 100 µM) is “not markedly inhibited”. Also, in [12] (pooled HLM), the “MDI (metabolism-dependent inhibition) of CYP2D6 (in words)” value is “exhibited MDI”. In addition, the “Fold reduction in IC50 against CYP2D6 (IC50 shift)” value in series [12] (pooled HLM, pre-incubation with vs without NADPH) is on record as 2.2 fold. Further, the negative logarithm of the IC50 (pIC50) was 6.51 in series [12] (read-out: IC50 against CYP2D6, pre-incubation with NADPH, pooled HLM, 30 min pre-incubation with NADPH); 6.18 in series [12] (read-out: IC50 against CYP2D6, pre-incubation without NADPH, pooled HLM, 30 min pre-incubation without NADPH); 6.01 in series [4] (read-out: IC50 CYP2D6, pooled HLM, direct inhibition, substrate dextromethorphan, 95% confidence intervals in parentheses). The “Inhibition of CYP3A4 (in words)” value in series [3] (up to 100 µM, substrates MDZ and TST) was “not markedly inhibited”. In addition, the “Inhibition of CYP2C9 (in words)” value in [5] (pooled HLM, up to 100 µM) is on record as “not markedly inhibited”. Further, the “Inhibition of CYP2B6 (in words)” value in [6] (pooled HLM, up to 100 µM) is given as “not markedly inhibited”. In addition, the “Inhibition of CYP2E1 (in words)” value in [8] (pooled HLM, up to 100 µM) is on record as “not markedly inhibited”. The “Inhibition of CYP2A6 (in words)” value in [9] (pooled HLM, up to 100 µM) was “not markedly inhibited”. Moreover, in series [10] (pooled HLM, up to 100 µM), the “Inhibition of CYP1A2 (in words)” value was “not markedly inhibited”. Also, in [11] (pooled HLM, up to 100 µM), the “Inhibition of CYP2C19 (in words)” value was “not markedly inhibited”.

For the compound demethylene-TFD [M1], the “M1 (m/z = 310) signal formed from BBR” value in series [1] (0 min) is 1.3 ± 0.25 1000 × cps; in [1] (7.5 min), 28 ± 0.66 1000 × cps; in [1] (15 min), 80 ± 0.31 1000 × cps; in [1] (30 min) it was 220 ± 2.6 1000 × cps; in [1] (60 min), 540 ± 15 1000 × cps; in series [1] (120 min), 1100 ± 26 1000 × cps.
